This note sets out measurements from the NIST ThermoML archive (doi:10.1016/j.jct.2007.06.016).

The conditions of data set [1]: 298.15 K, 101.33 kPa, Liquid.
Data set [2] can be described thus: refractive index (Na D-line) (dimensionless). To be noted: 298.15 K; 101.33 kPa; Liquid; Standard Abbe refractometry.

± gives the expanded uncertainty stated by the source.

As a reminder, the mass density is mass per unit of volume. By refractive index is commonly meant the speed of light in vacuum divided by its phase velocity in the sample.

Regarding `CCCCCCCCn1cc[n+](C)c1.O=S(=O)([N-]S(=O)(=O)C(F)(F)F)C(F)(F)F`, in data set [1] (Vibrating tube method), the mass density is recorded as 1320.76 ± 9.5 kg/m3. In data set [2], the refractive index is 1.43331 ± 0.0012.
Turning to `C1CCCCC1` [cyclohexane], the mass density in data set [1] was 773.76 ± 0.52 kg/m3. Also, the refractive index in data set [2] was found to be 1.42403 ± 0.00068.
The corresponding values for `CCCCCCCCCCCC` [dodecane] are 745.32 ± 0.91 kg/m3 and 1.42011 ± 0.0007.
The corresponding values for `c1ccsc1` [thiophene] are 1058.5 ± 0.55 kg/m3 and 1.52581 ± 0.0007.
